Reference: ChEMBL document CHEMBL1201862, “PubChem BioAssay data set” (2004)
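1) Cells in 96-well plates. 2) Compound, 48 h, 5 concentrations. 3) Linear interpolation between surrounding doses. 4) Unreached endpoint = highest concentration. Here, GI50 denotes the concentration required for 50% inhibition of growth.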 The source made the active and inactive calls. Cut-off read from the data, not from the text of the source: active = GI50 up to about 1.1 µM and inactive = higher.

Tests used:
Assay in all cases: growth of human tumour cells (NCI), 48 h
A549 = test system: A549
CAKI-1 = test system: CAKI-1
COLO 205 = test system: COLO 205
HCC 2998 = test system: HCC 2998
HCT-116 = test system: HCT-116
HL-60 = test system: HL-60
HT-29 = test system: HT-29
KM12 = test system: KM12
M14 = test system: M14
MDA-MB-231 = test system: MDA-MB-231
MOLT-4 = test system: MOLT-4
Malme-3M = test system: Malme-3M
NCI-H522 = test system: NCI-H522
OVCAR-5 = test system: OVCAR-5
SK-MEL-2 = test system: SK-MEL-2
SK-MEL-5 = test system: SK-MEL-5
SN12C = test system: SN12C
SNB-75 = test system: SNB-75
TK-10 = test system: TK-10
UACC-257 = test system: UACC-257

SMILES	GI50 (A549)	GI50 (CAKI-1)	GI50 (COLO 205)	GI50 (HCC 2998)	GI50 (HCT-116)	GI50 (HL-60)	GI50 (HT-29)	GI50 (KM12)	GI50 (M14)	GI50 (MDA-MB-231)	GI50 (MOLT-4)	GI50 (Malme-3M)	GI50 (NCI-H522)	GI50 (OVCAR-5)	GI50 (SK-MEL-2)	GI50 (SK-MEL-5)	GI50 (SN12C)	GI50 (SNB-75)	GI50 (TK-10)	GI50 (UACC-257)
COc1cc(/C=C2\C(=O)N(c3cccc(NC(C)=O)c3)C(c3ccccc3)S2(=O)=O)cc(OC)c1OC (stereo not given)	> 100 µM (inactive)	> 100 µM (inactive)	63.1 µM (inactive)	> 100 µM (inactive)	37.8 µM (inactive)	17.5 µM (inactive)	55.2 µM (inactive)	49.8 µM (inactive)	> 100 µM (inactive)	> 100 µM (inactive)	19.8 µM (inactive)	93.5 µM (inactive)	28.4 µM (inactive)	> 100 µM (inactive)	> 100 µM (inactive)	39.1 µM (inactive)	67.5 µM (inactive)	62.7 µM (inactive)	> 100 µM (inactive)	> 100 µM (inactive)
CCN(CCCl)c1cc(CN(C)C)cc(NC(=O)c2ccc(C(=O)Nc3cccc(N(CCCl)NN)c3)cc2)c1	0.0209 µM (active)	0.0168 µM (active)	0.0635 µM (active)	0.0546 µM (active)	0.0277 µM (active)	< 0.01 µM (active)	0.0154 µM (active)	0.123 µM (active)	0.0224 µM (active)	0.185 µM (active)	< 0.01 µM (active)	0.0224 µM (active)	< 0.01 µM (active)	0.182 µM (active)	0.0521 µM (active)	0.0461 µM (active)	0.0332 µM (active)	0.0336 µM (active)	0.296 µM (active)	0.174 µM (active)
CCOC(=O)c1c(C)n(-c2ccc(C)cc2)c(=O)c2ccccc2c(=O)c2c(=O)ccc(=O)c1=2	20.2 µM (inactive)	14.5 µM (inactive)	15.2 µM (inactive)	14.3 µM (inactive)	17.2 µM (inactive)	14.1 µM (inactive)	12.2 µM (inactive)	13.6 µM (inactive)	20.4 µM (inactive)	16.1 µM (inactive)	2.87 µM (inactive)	17 µM (inactive)	18.3 µM (inactive)	28.6 µM (inactive)	27 µM (inactive)	14.7 µM (inactive)	21.7 µM (inactive)	23.3 µM (inactive)	15.5 µM (inactive)	18.5 µM (inactive)
Cn1ccnc1Sc1ccc(/C=N/NC(=O)c2ccccc2[N+](=O)[O-])cc1[N+](=O)[O-]	> 100 µM (inactive)	49.8 µM (inactive)	56.2 µM (inactive)	36.7 µM (inactive)	65.6 µM (inactive)	47.1 µM (inactive)	35.6 µM (inactive)	49.9 µM (inactive)	> 100 µM (inactive)	23.1 µM (inactive)	41.2 µM (inactive)	54.6 µM (inactive)	38.5 µM (inactive)	> 100 µM (inactive)	29 µM (inactive)	46.1 µM (inactive)	60.3 µM (inactive)	> 100 µM (inactive)	65.3 µM (inactive)	87.5 µM (inactive)
CCCC#CCOC(=O)c1cc([N+](=O)[O-])cc([N+](=O)[O-])c1	> 100 µM (inactive)	> 100 µM (inactive)	> 100 µM (inactive)	> 100 µM (inactive)	> 100 µM (inactive)	> 100 µM (inactive)	> 100 µM (inactive)	> 100 µM (inactive)	> 100 µM (inactive)	> 100 µM (inactive)	> 100 µM (inactive)	19.9 µM (inactive)	43.4 µM (inactive)	> 100 µM (inactive)	> 100 µM (inactive)	52 µM (inactive)	> 100 µM (inactive)	> 100 µM (inactive)	> 100 µM (inactive)	> 100 µM (inactive)
O=C(c1cccs1)N(C(=O)N1CCN(c2ccccc2)CC1)S(=O)(=O)c1ccccc1	32.8 µM (inactive)	21.2 µM (inactive)	16.4 µM (inactive)	40.1 µM (inactive)	20.2 µM (inactive)	19.4 µM (inactive)	30.5 µM (inactive)	31.4 µM (inactive)	17.7 µM (inactive)	23.1 µM (inactive)	20.2 µM (inactive)	19.8 µM (inactive)	15.6 µM (inactive)	22.7 µM (inactive)	18.7 µM (inactive)	17 µM (inactive)	17.5 µM (inactive)	14.2 µM (inactive)	31.8 µM (inactive)	23.8 µM (inactive)
CC1CCc2sc3nc(S)n(C)c(=O)c3c2C1 (stereo not given)	33.6 µM (inactive)	39.2 µM (inactive)	67.5 µM (inactive)	22.2 µM (inactive)	34.5 µM (inactive)	2.85 µM (inactive)	40 µM (inactive)	42.8 µM (inactive)	34.3 µM (inactive)	36.7 µM (inactive)	41.4 µM (inactive)	53.6 µM (inactive)	30.1 µM (inactive)	73.1 µM (inactive)	40.4 µM (inactive)	35.1 µM (inactive)	36.5 µM (inactive)	35.9 µM (inactive)	63 µM (inactive)	35.3 µM (inactive)
